# In ChEMBL document CHEMBL1201862, “PubChem BioAssay data set” (2004):
# The source made the active and inactive calls.
# Tests used:
# [1] = target: Epstein-Barr nuclear antigen 1 (Epstein-Barr virus (strain B95-8) (HHV-4) (Human herpesvirus 4), UniProt P03211); test: EBNA-1 inhibitors, dose response, biochemical, fluorescence polarization, 1536-well (AID 2381); design: species or system human gammaherpesvirus 4;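 also: fluorescence polarization of a Cy5 DNA probe bound by EBNA-1 protein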
# [2] = target: Lytic switch protein BZLF1 (Epstein-Barr virus (strain B95-8) (HHV-4) (Human herpesvirus 4), UniProt P03206); test: EBV ZTA inhibitors, dose response, counter-screen for EBNA-1 inhibitor project, biochemical, fluorescence polarization, Epstein-Barr virus, 1536-well (AID 2377); design: species or system human gammaherpesvirus 4;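 also: fluorescence polarization of Cy5-labelled ZRE DNA probe bound by purified Zta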
# Chain of Lytic switch protein BZLF1 (P03206 whole entry): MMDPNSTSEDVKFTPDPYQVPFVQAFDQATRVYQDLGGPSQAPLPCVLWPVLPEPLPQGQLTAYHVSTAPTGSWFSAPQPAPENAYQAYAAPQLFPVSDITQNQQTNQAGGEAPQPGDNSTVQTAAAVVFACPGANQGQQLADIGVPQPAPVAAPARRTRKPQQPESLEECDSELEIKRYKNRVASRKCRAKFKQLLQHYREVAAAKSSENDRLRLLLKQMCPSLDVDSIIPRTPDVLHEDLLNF
# [3] = target: T1, Neuropeptide Y receptor type 1 (Homo sapiens, UniProt P25929); assay type: functional;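 also: HEK293 cells with a CNG channel challenged with NPY then isoproterenol; potency as antagonist that reverses NPY suppression of cAMP signal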
# T1 sequence (P25929 whole entry): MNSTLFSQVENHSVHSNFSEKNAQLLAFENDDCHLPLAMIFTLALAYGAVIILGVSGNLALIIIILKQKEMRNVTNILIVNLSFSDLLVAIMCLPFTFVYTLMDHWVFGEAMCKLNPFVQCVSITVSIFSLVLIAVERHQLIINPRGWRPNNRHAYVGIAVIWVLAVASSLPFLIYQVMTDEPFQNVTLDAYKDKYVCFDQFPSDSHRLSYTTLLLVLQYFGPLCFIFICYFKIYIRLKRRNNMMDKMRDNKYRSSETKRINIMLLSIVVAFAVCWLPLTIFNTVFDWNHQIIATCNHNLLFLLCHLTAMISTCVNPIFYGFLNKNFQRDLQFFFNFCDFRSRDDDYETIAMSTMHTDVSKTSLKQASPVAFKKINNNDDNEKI
# [4] = target: T2, Neuropeptide Y receptor type 2 (Homo sapiens, UniProt P49146); assay type: functional, cell-based;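 also: HEK293 cells expressing the receptor and a CNG channel; stimulus was NPY near EC95 followed by isoproterenol to raise cAMP; antagonist potency measured as restoring cAMP signal that NPY suppresses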
# T2 sequence (P49146 whole entry): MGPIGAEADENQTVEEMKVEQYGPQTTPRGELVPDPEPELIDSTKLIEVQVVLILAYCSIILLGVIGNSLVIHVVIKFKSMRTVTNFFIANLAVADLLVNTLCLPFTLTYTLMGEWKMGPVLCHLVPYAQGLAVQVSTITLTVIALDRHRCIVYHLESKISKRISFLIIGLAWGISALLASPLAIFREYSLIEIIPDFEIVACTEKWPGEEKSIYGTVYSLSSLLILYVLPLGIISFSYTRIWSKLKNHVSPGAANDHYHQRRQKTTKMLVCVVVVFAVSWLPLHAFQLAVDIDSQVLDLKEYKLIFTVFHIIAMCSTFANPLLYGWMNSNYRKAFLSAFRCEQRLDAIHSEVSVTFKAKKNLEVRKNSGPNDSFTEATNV
# [5] = target: Peroxisome proliferator-activated receptor gamma/Nuclear receptor coactivator 2 (Homo sapiens, UniProt P37231); assay type: functional;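 also: agonist potency for raising coactivator recruitment to the receptor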
# [6] = target: Peroxisome proliferator-activated receptor gamma/Nuclear receptor coactivator 1 (Homo sapiens, UniProt P37231); assay type: functional;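 also: agonist potency as compounds enhance coactivator SRC-1 recruitment to PPARgamma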
# Chain of Peroxisome proliferator-activated receptor gamma/Nuclear receptor coactivator 1 (P37231 whole entry): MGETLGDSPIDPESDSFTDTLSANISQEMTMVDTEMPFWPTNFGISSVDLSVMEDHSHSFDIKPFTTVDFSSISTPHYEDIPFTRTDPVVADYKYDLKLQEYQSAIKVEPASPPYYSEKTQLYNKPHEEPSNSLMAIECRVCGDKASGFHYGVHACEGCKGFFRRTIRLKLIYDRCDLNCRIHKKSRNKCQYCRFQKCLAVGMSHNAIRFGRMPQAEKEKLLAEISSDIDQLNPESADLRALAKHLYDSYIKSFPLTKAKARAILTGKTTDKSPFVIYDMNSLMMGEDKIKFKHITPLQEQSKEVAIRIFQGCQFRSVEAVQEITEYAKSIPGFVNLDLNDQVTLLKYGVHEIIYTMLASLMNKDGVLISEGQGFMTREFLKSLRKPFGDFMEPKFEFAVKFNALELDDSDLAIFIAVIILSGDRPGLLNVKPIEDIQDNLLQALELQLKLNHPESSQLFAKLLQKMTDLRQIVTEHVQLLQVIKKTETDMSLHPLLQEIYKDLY
# Chain of Peroxisome proliferator-activated receptor gamma/Nuclear receptor coactivator 1 (Q15788 whole entry, further chain): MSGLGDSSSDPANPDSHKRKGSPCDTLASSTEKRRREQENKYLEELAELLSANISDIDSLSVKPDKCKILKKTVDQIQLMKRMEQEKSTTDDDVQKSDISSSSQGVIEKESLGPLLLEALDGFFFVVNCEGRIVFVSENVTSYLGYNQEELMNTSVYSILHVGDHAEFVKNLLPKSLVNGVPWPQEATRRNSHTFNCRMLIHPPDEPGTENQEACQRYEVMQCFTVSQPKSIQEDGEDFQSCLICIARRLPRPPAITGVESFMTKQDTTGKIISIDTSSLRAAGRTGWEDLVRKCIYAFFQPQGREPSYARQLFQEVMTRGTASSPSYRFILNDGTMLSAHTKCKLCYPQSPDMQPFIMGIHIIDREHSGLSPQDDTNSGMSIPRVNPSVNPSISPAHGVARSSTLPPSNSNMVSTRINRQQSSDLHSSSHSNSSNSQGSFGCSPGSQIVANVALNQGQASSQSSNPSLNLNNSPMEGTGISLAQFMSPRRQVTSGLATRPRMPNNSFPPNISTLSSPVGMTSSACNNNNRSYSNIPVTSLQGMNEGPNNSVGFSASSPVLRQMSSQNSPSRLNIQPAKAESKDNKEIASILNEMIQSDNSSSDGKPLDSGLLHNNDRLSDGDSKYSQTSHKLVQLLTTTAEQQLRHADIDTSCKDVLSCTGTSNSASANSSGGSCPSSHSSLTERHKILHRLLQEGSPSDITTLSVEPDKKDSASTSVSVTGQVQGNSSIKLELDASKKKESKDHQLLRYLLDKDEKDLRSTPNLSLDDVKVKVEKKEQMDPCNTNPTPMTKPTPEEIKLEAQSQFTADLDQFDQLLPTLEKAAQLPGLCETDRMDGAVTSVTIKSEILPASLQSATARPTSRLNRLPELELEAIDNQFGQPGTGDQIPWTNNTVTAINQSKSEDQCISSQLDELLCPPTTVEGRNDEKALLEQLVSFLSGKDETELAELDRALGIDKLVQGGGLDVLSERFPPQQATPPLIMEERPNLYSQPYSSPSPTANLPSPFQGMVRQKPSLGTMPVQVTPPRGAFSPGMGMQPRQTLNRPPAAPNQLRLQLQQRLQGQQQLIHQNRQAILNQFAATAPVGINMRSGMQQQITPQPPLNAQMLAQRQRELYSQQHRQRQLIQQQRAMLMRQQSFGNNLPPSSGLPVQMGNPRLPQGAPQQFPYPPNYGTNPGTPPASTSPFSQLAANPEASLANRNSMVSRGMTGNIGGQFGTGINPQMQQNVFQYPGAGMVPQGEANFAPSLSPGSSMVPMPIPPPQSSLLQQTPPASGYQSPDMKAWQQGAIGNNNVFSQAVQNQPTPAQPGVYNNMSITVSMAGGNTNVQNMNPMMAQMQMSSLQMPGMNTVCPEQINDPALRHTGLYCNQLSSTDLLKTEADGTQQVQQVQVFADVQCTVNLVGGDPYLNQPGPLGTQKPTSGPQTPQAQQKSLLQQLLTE
# [7] = target: Peroxisome proliferator-activated receptor gamma/Nuclear receptor coactivator 3 (Homo sapiens, UniProt P37231); assay type: functional;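 also: agonist potency for raising coactivator recruitment to the receptor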
# Chain of Peroxisome proliferator-activated receptor gamma/Nuclear receptor coactivator 3 (P37231 whole entry): as the sequence (P37231 whole entry) above
# Chain of Peroxisome proliferator-activated receptor gamma/Nuclear receptor coactivator 3 (Q9Y6Q9 whole entry, further chain): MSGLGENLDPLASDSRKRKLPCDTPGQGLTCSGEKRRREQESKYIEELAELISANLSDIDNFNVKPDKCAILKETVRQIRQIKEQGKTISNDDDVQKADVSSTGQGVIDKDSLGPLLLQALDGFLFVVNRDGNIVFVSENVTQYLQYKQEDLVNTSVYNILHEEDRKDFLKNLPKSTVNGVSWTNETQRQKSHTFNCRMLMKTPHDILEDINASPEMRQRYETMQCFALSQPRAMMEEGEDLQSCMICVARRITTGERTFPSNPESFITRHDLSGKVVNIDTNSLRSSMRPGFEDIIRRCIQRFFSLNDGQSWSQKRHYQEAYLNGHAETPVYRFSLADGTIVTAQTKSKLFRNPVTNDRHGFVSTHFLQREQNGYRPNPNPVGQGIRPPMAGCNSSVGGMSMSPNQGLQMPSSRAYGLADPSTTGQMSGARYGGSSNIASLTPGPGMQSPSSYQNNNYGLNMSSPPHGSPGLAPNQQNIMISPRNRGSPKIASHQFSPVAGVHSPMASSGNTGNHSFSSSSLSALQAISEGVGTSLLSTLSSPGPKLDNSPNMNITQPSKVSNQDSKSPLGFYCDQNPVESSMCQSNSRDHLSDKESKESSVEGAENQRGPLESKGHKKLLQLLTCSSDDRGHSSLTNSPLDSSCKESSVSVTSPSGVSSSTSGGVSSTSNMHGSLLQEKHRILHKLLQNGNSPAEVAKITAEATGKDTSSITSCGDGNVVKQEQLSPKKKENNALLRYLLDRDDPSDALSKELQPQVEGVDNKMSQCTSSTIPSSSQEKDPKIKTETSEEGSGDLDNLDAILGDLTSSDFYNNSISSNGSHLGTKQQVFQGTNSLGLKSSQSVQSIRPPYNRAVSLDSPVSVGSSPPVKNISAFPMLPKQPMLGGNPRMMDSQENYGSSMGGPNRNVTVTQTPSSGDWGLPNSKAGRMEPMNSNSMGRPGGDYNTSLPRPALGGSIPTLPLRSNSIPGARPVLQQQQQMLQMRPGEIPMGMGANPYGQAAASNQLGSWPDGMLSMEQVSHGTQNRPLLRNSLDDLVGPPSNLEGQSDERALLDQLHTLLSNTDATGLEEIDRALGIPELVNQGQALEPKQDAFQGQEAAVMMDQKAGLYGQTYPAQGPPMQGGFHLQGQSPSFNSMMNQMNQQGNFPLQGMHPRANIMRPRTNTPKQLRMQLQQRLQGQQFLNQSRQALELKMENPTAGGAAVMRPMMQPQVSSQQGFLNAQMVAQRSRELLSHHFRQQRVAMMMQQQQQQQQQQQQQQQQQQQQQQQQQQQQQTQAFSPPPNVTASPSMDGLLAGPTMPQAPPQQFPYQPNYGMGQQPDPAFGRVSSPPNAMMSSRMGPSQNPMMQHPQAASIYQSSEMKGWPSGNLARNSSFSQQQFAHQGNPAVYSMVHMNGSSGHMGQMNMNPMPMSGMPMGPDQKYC
# [8] = target: Aryl hydrocarbon receptor (Homo sapiens, UniProt P35869); test: Luminescence-based cell-based high throughput dose response assay for activators of the Aryl Hydrocarbon Receptor (AHR). [Related pubchem assays: 2796 (Primary screen (AHR activators in singlicate)), 2845 (Confirmation screen (AHR activators in triplicate)), 434939 (Counterscreen (PXR activators in triplicate)), 2804 (Summary (AHR activators))]; assay type: ADME
# [9] = target: T3, Short transient receptor potential channel 4 (Mus musculus, UniProt Q9QUQ5); test: mouse TRPC4 channel inhibitors, dose response, cell-based, HEK293 TRPC4/mu-opioid, Fluo-4 calcium (AID 434942); assay type: functional;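 also: potency of inhibitors blocking the TRPC4 calcium response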
# T3 sequence (Q9QUQ5 whole entry): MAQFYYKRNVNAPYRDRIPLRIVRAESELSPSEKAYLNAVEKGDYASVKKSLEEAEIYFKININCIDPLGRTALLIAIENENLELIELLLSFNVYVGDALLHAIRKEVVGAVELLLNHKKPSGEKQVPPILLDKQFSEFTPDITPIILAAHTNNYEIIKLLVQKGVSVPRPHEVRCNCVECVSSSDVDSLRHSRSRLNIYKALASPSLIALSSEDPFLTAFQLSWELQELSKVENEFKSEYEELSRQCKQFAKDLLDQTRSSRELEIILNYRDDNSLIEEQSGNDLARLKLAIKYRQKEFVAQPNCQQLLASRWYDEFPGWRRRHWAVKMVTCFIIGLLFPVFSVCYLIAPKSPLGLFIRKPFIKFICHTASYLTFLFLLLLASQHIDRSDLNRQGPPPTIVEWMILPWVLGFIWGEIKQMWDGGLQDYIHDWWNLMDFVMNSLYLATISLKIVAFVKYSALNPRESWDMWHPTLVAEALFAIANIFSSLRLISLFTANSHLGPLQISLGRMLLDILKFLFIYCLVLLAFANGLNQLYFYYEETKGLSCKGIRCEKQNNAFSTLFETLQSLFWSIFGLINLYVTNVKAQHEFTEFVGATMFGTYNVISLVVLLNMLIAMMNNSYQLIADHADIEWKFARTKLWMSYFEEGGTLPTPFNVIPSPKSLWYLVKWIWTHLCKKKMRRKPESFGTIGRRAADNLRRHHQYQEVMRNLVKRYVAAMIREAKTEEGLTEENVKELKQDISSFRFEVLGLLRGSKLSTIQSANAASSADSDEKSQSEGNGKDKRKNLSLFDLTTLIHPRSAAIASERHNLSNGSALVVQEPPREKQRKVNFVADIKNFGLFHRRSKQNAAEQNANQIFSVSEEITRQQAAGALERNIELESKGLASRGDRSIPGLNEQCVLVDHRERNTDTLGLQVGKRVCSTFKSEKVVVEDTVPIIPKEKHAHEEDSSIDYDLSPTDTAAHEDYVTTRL
# [10] = Luminescence Cell-Based Dose Response to Identify Activators of 5'UTR Stem-Loop Driven Prion Protein mRNA Translation in H4-C Neuroglioblastoma Cells. [Related pubchem assays: 1829 (Project Summary), 1814 (Primary HTS)]; assay type: functional
# [11] = Luminescence Cell-Based Dose Response HTS to Identify Activators of Luciferase Translation or Activity in H4 […] Cells. [Related pubchem assays: 1829 (Project Summary), 1814 (Primary HTS)]; assay type: functional
# H4 = test: Luminescence Cell-Based Dose Response HTS to Identify Activators of 5'UTR Stem-Loop Driven Prion Protein mRNA Translation in H4 Neuroglioblastoma Cells. [Related pubchem assays: 1829 (Project Summary), 1814 (Primary HTS)]; assay type: functional; conditions: Homo sapiens
# [12] = Luminescence Cell-Based Dose Response to Identify Activators of Luciferase Translation or Activity in H4-C Neuroglioblastoma Cells. [Related pubchem assays: 1829 (Project Summary), 1814 (Primary HTS)]; assay type: functional
# [13] = Luminescence Cell-Based Dose Confirmation to Identify Activators of 5'UTR Stem-Loop Driven Alpha-Synuclein mRNA Translation in H4 Neuroglioblastoma Cells. [Related pubchem assays: 1829 (Project Summary), 1814 (Primary HTS)]; assay type: functional
# HeLa = test: HeLa cell cytotoxicity, dose response, cytotoxicity control for MITF activator project, CellTiter-Glo luminescence, cherry-pick samples (AID 540259); assay type: functional, cell-based; conditions: Homo sapiens
# Trypsin = Trypsin (Sus scrofa, UniProt P00761); test: porcine trypsin inhibitors, dose response, selectivity assay for Rce1 protease inhibitor project, biochemical, quenched peptide fluorescence, cherry-pick (AID 488789)
# Chain of Trypsin (P00761 whole entry): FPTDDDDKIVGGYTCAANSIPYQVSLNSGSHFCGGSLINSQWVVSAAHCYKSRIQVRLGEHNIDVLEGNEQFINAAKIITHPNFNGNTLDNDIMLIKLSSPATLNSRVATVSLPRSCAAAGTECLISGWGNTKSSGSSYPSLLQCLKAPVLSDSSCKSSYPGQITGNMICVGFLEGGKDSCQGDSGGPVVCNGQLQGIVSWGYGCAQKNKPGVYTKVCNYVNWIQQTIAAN
# CAAX prenyl protease 2 [14] = target: T4, CAAX prenyl protease 2 (Saccharomyces cerevisiae S288c, UniProt Q03530); assay type: biochemical
# T4 sequence (Q03530 whole entry): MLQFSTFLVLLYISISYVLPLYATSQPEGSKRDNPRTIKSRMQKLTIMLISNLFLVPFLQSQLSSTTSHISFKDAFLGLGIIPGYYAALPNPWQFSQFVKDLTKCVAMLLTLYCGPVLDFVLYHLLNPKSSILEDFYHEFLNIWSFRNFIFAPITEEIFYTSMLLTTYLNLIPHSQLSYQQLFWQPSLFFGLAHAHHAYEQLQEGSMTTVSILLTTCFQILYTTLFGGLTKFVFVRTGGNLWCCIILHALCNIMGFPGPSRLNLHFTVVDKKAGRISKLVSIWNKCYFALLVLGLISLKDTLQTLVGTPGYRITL
# CAAX prenyl protease 2 [15] = target: T5, CAAX prenyl protease 2 (Homo sapiens, UniProt Q9Y256); test: human Rce1 protease inhibitors, dose response, biochemical, yeast membranes, quenched-peptide fluorescence, cherry-pick (AID 588849)
# T5 sequence (Q9Y256 whole entry): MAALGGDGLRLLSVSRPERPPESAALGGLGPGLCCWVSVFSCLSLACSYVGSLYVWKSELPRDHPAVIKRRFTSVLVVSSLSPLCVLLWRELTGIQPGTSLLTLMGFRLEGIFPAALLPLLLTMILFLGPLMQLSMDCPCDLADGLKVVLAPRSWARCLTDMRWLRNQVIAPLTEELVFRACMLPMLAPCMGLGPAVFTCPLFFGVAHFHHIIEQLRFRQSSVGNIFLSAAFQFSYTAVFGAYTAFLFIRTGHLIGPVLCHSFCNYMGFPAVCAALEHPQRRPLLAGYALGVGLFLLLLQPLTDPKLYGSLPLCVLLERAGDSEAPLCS
# [16] = target: T6, DNA repair and recombination protein RAD54-like (Homo sapiens, UniProt Q92698); test: inhibitors of human RAD54 branch migration, confirmation, biochemical, fluorescence, cherry-picked samples, dose series (AID 651657); assay type: functional
# T6 sequence (Q92698 whole entry): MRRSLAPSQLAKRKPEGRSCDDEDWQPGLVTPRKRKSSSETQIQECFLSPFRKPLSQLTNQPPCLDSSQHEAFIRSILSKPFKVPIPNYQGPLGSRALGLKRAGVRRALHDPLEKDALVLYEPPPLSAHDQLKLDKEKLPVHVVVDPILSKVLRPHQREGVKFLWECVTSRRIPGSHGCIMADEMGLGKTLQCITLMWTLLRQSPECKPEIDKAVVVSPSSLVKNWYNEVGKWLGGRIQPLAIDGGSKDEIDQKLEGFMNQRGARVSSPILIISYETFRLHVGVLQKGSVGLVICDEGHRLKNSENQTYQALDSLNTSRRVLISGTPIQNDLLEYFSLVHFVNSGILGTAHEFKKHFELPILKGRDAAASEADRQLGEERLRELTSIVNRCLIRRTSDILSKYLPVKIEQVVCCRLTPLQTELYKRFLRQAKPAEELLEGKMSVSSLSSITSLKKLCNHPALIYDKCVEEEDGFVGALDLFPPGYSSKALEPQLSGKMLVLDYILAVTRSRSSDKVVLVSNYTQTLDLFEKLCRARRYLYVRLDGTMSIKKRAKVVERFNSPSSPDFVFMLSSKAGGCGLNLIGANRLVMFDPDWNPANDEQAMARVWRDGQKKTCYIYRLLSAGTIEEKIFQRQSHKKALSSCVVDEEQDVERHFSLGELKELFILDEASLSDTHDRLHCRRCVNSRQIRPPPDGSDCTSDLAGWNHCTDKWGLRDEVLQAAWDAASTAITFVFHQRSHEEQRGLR
# [17] = target: T7, DNA repair protein RAD52 homolog (Homo sapiens, UniProt P43351); assay type: functional, biochemical
# T7 sequence (P43351 whole entry): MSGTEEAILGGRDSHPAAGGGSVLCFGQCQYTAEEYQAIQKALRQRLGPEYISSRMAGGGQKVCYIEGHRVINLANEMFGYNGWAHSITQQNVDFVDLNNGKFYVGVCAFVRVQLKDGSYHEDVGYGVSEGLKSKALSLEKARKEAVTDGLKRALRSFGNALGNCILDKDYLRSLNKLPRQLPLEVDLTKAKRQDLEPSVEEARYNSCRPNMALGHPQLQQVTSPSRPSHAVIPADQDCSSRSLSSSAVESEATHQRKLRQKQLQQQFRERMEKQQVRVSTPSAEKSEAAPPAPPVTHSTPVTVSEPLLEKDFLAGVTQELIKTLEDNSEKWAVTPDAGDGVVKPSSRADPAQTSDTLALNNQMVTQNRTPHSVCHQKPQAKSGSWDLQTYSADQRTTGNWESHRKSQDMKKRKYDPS
# Chain of Epstein-Barr nuclear antigen 1 (P03211 whole entry): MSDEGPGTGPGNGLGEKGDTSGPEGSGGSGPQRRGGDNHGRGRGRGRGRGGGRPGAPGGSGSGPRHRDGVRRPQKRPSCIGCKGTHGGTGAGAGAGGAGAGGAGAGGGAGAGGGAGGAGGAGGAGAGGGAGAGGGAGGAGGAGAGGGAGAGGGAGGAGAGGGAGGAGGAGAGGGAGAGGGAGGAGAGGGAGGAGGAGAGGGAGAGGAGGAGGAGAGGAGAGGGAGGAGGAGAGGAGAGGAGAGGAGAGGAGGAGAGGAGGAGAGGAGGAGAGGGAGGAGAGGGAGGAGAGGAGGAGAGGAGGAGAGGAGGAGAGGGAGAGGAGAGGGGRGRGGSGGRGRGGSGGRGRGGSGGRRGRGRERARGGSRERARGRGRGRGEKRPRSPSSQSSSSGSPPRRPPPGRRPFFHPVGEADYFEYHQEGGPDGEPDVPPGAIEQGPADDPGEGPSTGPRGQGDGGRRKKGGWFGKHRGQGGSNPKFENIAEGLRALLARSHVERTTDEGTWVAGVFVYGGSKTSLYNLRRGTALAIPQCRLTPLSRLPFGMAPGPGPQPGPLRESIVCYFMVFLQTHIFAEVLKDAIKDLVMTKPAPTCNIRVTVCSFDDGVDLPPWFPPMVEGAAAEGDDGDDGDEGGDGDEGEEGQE
structure (smiles),measurement,setting,value
O=C(CCCCCn1c(=S)[nH]c2cc3c(cc2c1=O)OCO3)N1CCN(Cc2ccccc2)CC1,IC50,[1],14.9 µM (not active)
same,IC50,[2],> 111 µM (not active)
COc1cccc(-c2ccc(C#N)c(SCC(=O)NCCc3ccc(Cl)cc3)n2)c1,IC50,[3],4.58 µM (active)
same,IC50,[4],6.45 µM (active)
CC1=NN(C(=O)Cn2ccc([N+](=O)[O-])n2)C(O)(C(F)(F)F)C1 (stereo unspecified),EC50,[5],> 79.4 µM (not active)
same,EC50,[6],> 79.4 µM (not active)
same,EC50,[7],> 79.4 µM (not active)
CCCc1nn(C)c(C(=O)Nc2cccc3ccccc23)c1Cl,EC50,[8],5.22 µM (active)
COc1cccc(N2CC(=O)C(c3nc(O)c4ccccc4n3)=C2N)c1,IC50,[1],10.2 µM (not active)
same,IC50,[2],> 111 µM (not active)
same,EC50,[9],0.133 µM (active)
FC(F)Oc1ccc(/N=C2\SCC3CCCCN23)cc1 (stereo unspecified),EC50,[10],1.04 µM (active)
same,EC50,[11],< 0.1 µM (active)
same,EC50,H4,30.2 µM (inconclusive)
same,EC50,[12],0.34 µM (active)
same,EC50,[13],0.405 µM (active)
same,AC50,HeLa,342 µM (active)
Cc1nc2cc(Nc3nnc(-c4ccccc4)c4ccccc34)ccc2n1C,EC50,[10],> 12 µM (not active)
same,EC50,[11],< 0.1 µM (active)
same,EC50,H4,31.4 µM (active)
same,EC50,[12],> 12 µM (not active)
same,EC50,[13],2.91 µM (active)
CCOC(=O)c1cnc2c(C)c(Cl)ccc2c1N1CCOCC1,EC50,[5],> 79.4 µM (not active)
same,EC50,[6],> 79.4 µM (not active)
same,EC50,[7],> 79.4 µM (not active)
CN(C)CCCN1C(=O)c2cccc3cccc(c23)C1=O,EC50,[8],0.815 µM (active)
same,AC50,Trypsin,38 µM (active)
same,AC50,CAAX prenyl protease 2 [14],68.1 µM (active)
same,AC50,CAAX prenyl protease 2 [15],5.4 µM (active)
same,AC50,[16],11.1 µM (active)
same,AC50,[17],16.4 µM (active)
